A word on the melting point: it is the temperature, or range, at which the solid turns liquid.

Turning to `CC(C)(C)CC(C)(C)c1ccc(OCCOC(=O)c2ccc(Nc3nc(Cl)nc(Cl)n3)cc2)cc1`, the melting point lay in the range of 249 to 251 °C.
The figure for `CC(=O)c1c(C)[nH]c(C)c1C` is 204 to 207 °C.
In turn, `COC(=O)c1ccc(N2CCC(c3ccc4c(c3)C(C)(C)CCC4(C)C)=N2)cc1` came in with a melting point of 276 to 278 °C.
The result for `CCC(=O)NC1=NN(c2ccccc2)CC1` reads 170 to 171 °C.
The result for `COc1ccc(CN2CCc3ncccc3C2)cc1OC` reads 76 to 77 °C.
`O=c1[nH]c(Cc2cccc(O)c2)cc2ccccc12` returned a melting point of 225 to 227 °C.
`O=C(O)CCSC1c2ccc(-c3nnn[nH]3)cc2COc2ccc(OCc3ccc4ccccc4n3)cc21` (configuration not stated) returned a melting point of 151 to 153 °C.
The result for `CCc1cc2c(cc1C#Cc1ccc(C)cc1)C(C)(C)CCC2(C)C` reads 72 to 73 °C; that for `CCOC(=O)NC(=O)C(c1cccc(C)c1)c1ncc(C(F)(F)F)cc1Cl` (configuration not stated), 146 to 147 °C.
The figure for `CCCCc1nc2cc(Br)cc(C(=O)O)c2n1Cc1ccccc1Cl` is 254 to 255 °C.
The figure for `CC1=C(C(=O)OC(C)C)C(c2cccc([N+](=O)[O-])c2)N(C(=O)N(C)C)C(N)=N1` (configuration not stated) is 202 to 203 °C; for `Cc1nc(C(CC(C)C)Nc2c(C#N)cnn3cccc23)sc1C` (configuration not stated) it is 138 °C.
`COc1cc2c3ccc(OC)c(OC)c3n(Cc3ccc(C(F)(F)F)cc3)c2cc1OC` returned a melting point of 145 to 146 °C.
The result for `O=C1COC2(CCN(CCc3ccccc3)CC2)CN1` reads 140 to 141 °C; that for `CC(=O)Nc1cc(N2CCCC2)c2c(Cl)ccc3c2c1C(=O)N(O)C3=O`, 152 to 154 °C; that for `O=C1c2c(OCc3ccccc3)c(OCc3ccccc3)cc(OCc3ccccc3)c2-c2nn(CCNCCO)c3ccc(Cl)c1c23`, 164 to 167 °C.
The figure for `N#CCc1ccc(CC(=O)O)c(S(N)(=O)=O)c1` is 125 to 129 °C; for `CCCCc1nc(C(C)(C)O)c(C(=O)OCOC(=O)OC(C)C)n1Cc1ccc(-c2ccccc2C(=O)O)cc1` it is 154 to 156 °C; for `CC1(C)OCc2cc(C(O)CNCCCCCCOCCCCc3ccccc3)ccc2O1` (configuration not stated) it is 68 to 70 °C.
The figure for `Brc1cccc(C#Cc2ccncc2)c1` is 140 to 142 °C; for `CN1CCC(c2nc3cccnc3[nH]2)CC1` it is 224 to 226 °C; for `CCC(=O)Nc1nc(N[C@H]2c3cc(C)ccc3C[C@@H]2C)nc(C(F)F)n1` it is 66 °C.
The molecule `C[C@H]1CCCC(C)(C)[C@@H]1[C@@H](O)c1ccc(Cl)c(F)c1` showed a melting point of 61.1 to 63.6 °C.
The figure for `CCCc1c(OC(C)=O)ccc2oc(Cc3ccc(OC)cc3)c(C)c12` is 39 to 41 °C.
In the case of `c1ccc(CCN2CCC(c3n[nH]c4c3CCc3ccccc3-4)CC2)cc1`, the melting point lay in the range of 151 to 152 °C.
The result for `COc1ccc(-c2ccc(N3CCCN(c4ccc(-c5ccc(OC)cc5OC)cn4)CC3)nc2)c(OC)c1` reads 161 to 163 °C; that for `C=CCCn1c(C(=O)c2cc(C)cc(C#N)c2)c(C(C)C)c(=O)[nH]c1=O`, 133 to 134 °C; that for `CN1CCN(c2ccc(S(=O)(=O)c3ccccc3)c(N)c2)CC1`, 90 to 93 °C.
The result for `CCOC(=O)COc1ccc(C(=O)Nc2ccccc2Oc2ccccc2-c2nnn[nH]2)cc1` reads 162 to 163 °C.
The result for `O=[N+]([O-])c1cc(-c2ccoc2)ccc1Nc1cccc(-n2ccnc2)n1` reads 173 to 174 °C; that for `CC(C(=O)N(C)C)n1nc(-c2ccccc2)c(Br)c1Br` (configuration not stated), 132 to 134 °C; that for `O=c1[nH]nc(-c2ccc(-n3ccnc3)cc2)c2ccccc12`, 310 to 311 °C.
As for `C=CCOc1cc(OC)ccc1C(=O)c1ccccc1`, the melting point stood at 40 °C.
The figure for `OCc1cc(-c2ccccc2)nn1Cc1ccc(Cl)cc1Cl` is 140 to 141 °C; for `CC1=C(C(=O)OCCN(C)Cc2ccccc2)C(c2cccc3ncc(-c4ccc(C)cc4)cc23)C2=C(COC2=O)N1` (configuration not stated) it is 173 to 175 °C; for `CC(=O)NCC1CN(c2ccc(N3CCN(C4=NCCS4)CC3)c(F)c2)C(=O)O1` (configuration not stated) it is 219 to 223 °C.
The result for `COc1ccccc1CN1CCc2cc(O)ccc2C1` reads 148 to 155 °C; that for `CN1CCC(O)(c2cccc3ccc(N(Cc4ccccc4)Cc4ccccc4)cc23)CC1`, 173 to 174 °C; that for `CCCN1CCc2c(c(Br)cc([N+](=O)[O-])c2NC(C)=O)C1`, 166 to 167 °C.
The molecule `CCCCCCCCOC(=O)COc1cc(F)ccc1C(=S)NCc1cccc([N+](=O)[O-])c1` yielded a melting point of 69 to 72 °C.
The result for `NS(=O)(=O)c1cc2c(s1)S(=O)(=O)CC(Br)C2O` (configuration not stated) reads 217 to 219 °C; that for `CSc1ccc2c(c1)C(SCCBr)Cc1ccccc1O2` (configuration not stated), 64 to 66 °C.
The result for `Cc1ccc(S(=O)(=O)OCc2cc([N+](=O)[O-])ccc2F)cc1` reads 89 to 91 °C; that for `CCOc1ccc2c(c1C=NO)OCO2`, 161 to 164 °C; that for `CC(=O)Nc1ccc2c(c1)NC(=O)C2CC(C)C` (configuration not stated), 214 to 216 °C.
`O=c1cnc(-c2ccc(F)c(Br)c2)nn1Cc1ccc(Cl)nc1` showed a melting point of 138 to 140 °C.
As to `CCC(Cc1c(I)cc(I)c(NC(=O)CN2CCNCCNCCNCC2)c1I)C(=O)O` (configuration not stated), the melting point turned out to be 201 °C.
The result for `Cc1c(CCC(=O)c2c[nH]c3ccccc23)ncn1C(c1ccccc1)(c1ccccc1)c1ccccc1` reads 225 to 227 °C.
The figure for `CCCCCCCCCCCCCCCCCCNC(=O)N1CCN(C(=O)c2ccc(CCl)cc2)CC1` is 68 to 70 °C; for `N#Cc1c2ccccc2cc2c1sc1cccc(-c3cc(Br)c(OCC(=O)O)c(Br)c3)c12` it is 259 to 261 °C; for `CNc1nc(S(C)=O)nc(N)c1[N+](=O)[O-]` (configuration not stated) it is 229 to 234 °C.
`COc1ccc(-n2nnnc2C(F)(F)F)c(OC)c1CO` gave a melting point of 74 to 79 °C.
The figure for `Cn1nc([N+](=O)[O-])cc1CO` is 66 to 68 °C; for `O=S1(=O)NC(C2CCCCC2)Nc2ccc(S(=O)(=O)N3CCCC3)cc21` (configuration not stated) it is 244 to 246 °C; for `CCOC(=O)c1cnc2nc(OCC)ccc2c1O` it is 175 to 179 °C.
The figure for `Cc1nc2cc(OCCO)ccc2s1` is 67 to 68 °C; for `COc1ccccc1C(O)c1cc(Br)cc(Br)c1` (configuration not stated) it is 112 to 116 °C.
For the molecule `O=C(c1ccc2nonc2c1)N1CCCCC1`, the melting point lay in the range of 88.5 to 90.5 °C.
The figure for `Cc1ccc(N2C(=O)C(O)=C(C(=O)c3ccccc3C)C2c2ccc(C(C)C)cc2)nn1` (configuration not stated) is 221 °C; for `COc1ccc(Cl)cc1C(=O)NC1COc2cc(OC)c(S(=O)(=O)NC(=O)NC(C)C)cc2C1` (configuration not stated) it is 181 to 183 °C; for `CCCc1c(OCCCSc2ccc(C(=O)COC(C)=O)cn2)ccc(C(C)=O)c1O` it is 93 to 95 °C.
The result for `COC(=O)[C@H]1CCc2c(OC)cccc2[C@@H]1O` reads 87 to 88 °C; that for `CCc1c(C(=O)OC(C)C)ncc2[nH]c3ccc4nc(C)cnc4c3c12`, 236 to 238 °C.
As for `COc1c(N2CCO[C@@H](CN(C)C)C2)c(F)cc2c(=O)c(C(=O)O)cn(C3CC3)c12`, the melting point is 146 to 147 °C.
The result for `CC(C)OC(=O)c1cccc(C(O)(c2ccc3c(c2)c(-c2cccc(Cl)c2)cc(=O)n3C)c2cncn2C)c1` (configuration not stated) reads 150 °C.
The result for `CN(Cc1ccc(C(=O)O)cc1)c1ccc2c(c1)C(C)(C)CCC2(C)C` reads 141 to 144 °C.
In turn, `Cn1ncnc1COc1nn2c(-c3ccccc3F)nncc2c1-c1cccc(C#N)c1` had a melting point of 194 to 196 °C.
The result for `CCOC(=O)C(NC(=O)c1ncn(Cc2ccccc2)c1[N+](=O)[O-])(OC)C(=O)OCC` reads 126 to 127 °C.
Consider `O=C(O)CCCCCc1cccc2c(I)ncn12`, for which the melting point was 163 to 165 °C.
The figure for `CC(=O)c1ccc(CC(C)NCC(O)c2ccccc2)cc1` (configuration not stated) is 120 to 135 °C; for `Cc1ccc(-c2nc(C#N)c(-c3cccc(Cl)c3)n2-c2cc(Cl)ccc2C)cc1C` it is 218 °C.
In turn, `CCCCCCCCCCCCn1nnc(CCC(=O)Nc2c(C(C)C)cccc2C(C)C)n1` yielded a melting point of 41 to 43 °C.
In the case of `O=C(O)c1[nH]c2ccc(C(O)(C(F)(F)F)C(F)(F)F)cc2c1-c1ccccc1`, the melting point fell in the range of 186 to 190 °C.
For `CCc1cnc(N2CCN(C(=O)c3ccc(CNc4ncnc5ccccc45)cc3)CC2)nc1`, the melting point was 170 to 171 °C.
The figure for `CNC(=O)c1cc(-c2ccc(OC)cc2)nn(CC#N)c1=O` is 153 to 155 °C; for `Cc1ccc(S(=O)(=O)O[C@H]2CCN(S(=O)(=O)c3ccc(C)cc3)C2)cc1` it is 110 °C; for `COc1cc2c(c3c1OC(C)(C)C3)C(c1cccc(N3CCN(CC(N)=O)S3(=O)=O)c1)=NC(C)(C)C2` it is 206 to 208 °C.
In the case of `CNC(=O)c1cn2c(C)c(C)nc2c(O)c1CC[C@@H](O)c1ccccc1`, the melting point was in the range of 250 to 252 °C.
`O=C(O)CCCOc1ccc(N2CCN(c3ccncc3)CC2)cc1` displayed a melting point of 305 to 306 °C.
The result for `CCOC(=O)C1=C(C(OCC)OCC)NC(C)=C(C(=O)OCCCl)C1c1cccc([N+](=O)[O-])c1` (configuration not stated) reads 96 to 97 °C.
The result for `Brc1cccc(P(c2ccccc2)c2ccccc2)n1` reads 81 °C; that for `O=Cc1c2ccccc2c(CCCl)c2ccccc12`, 158 to 159 °C; that for `O=C1OCCC1=Cc1ccccc1OCC(O)CN1CCC(c2ccc(Cl)c(F)c2)CC1` (configuration not stated), 114 to 115 °C.
The result for `CS(=O)(=O)c1ccc2c(c1)S(=O)(=O)NCN2CCF` reads 193 to 195 °C.
In turn, `Clc1nnc(Nc2cc(CN3CCCC3)cc(CN3CCCC3)c2)c2ccccc12` came in with a melting point of 180 to 183 °C.
The figure for `CC1(C)[C@H](C(=O)O)[C@@H]1C=C1CCSC1=O` is 162 °C; for `CC(=O)Nc1cc(O)ccc1Oc1ccccc1` it is 151 to 153 °C.
